Assay results taken from US8263777B2, “Aminopyrazole triazolothiadiazole inhibitor of c-Met protein kinase” (Vertex Pharmaceuticals Incorporated, priority 2010, dated 2012).
Values joined by “and” are separate entries in the source; they are usually repeats but may differ in a detail not shown here. Equal values may be shown once.

Experiments:
c-Met [1] = molecular target: T1, c-Met (Homo sapiens, UniProt P08581); assay: c-Met kinase inhibition assay (radiometric, 33P-ATP, polyE4Y); format: biochemical; settings: 0.5 nM c-Met, 35 μM ATP, competitive tight-binding fit
T1 sequence (P08581 25-1390): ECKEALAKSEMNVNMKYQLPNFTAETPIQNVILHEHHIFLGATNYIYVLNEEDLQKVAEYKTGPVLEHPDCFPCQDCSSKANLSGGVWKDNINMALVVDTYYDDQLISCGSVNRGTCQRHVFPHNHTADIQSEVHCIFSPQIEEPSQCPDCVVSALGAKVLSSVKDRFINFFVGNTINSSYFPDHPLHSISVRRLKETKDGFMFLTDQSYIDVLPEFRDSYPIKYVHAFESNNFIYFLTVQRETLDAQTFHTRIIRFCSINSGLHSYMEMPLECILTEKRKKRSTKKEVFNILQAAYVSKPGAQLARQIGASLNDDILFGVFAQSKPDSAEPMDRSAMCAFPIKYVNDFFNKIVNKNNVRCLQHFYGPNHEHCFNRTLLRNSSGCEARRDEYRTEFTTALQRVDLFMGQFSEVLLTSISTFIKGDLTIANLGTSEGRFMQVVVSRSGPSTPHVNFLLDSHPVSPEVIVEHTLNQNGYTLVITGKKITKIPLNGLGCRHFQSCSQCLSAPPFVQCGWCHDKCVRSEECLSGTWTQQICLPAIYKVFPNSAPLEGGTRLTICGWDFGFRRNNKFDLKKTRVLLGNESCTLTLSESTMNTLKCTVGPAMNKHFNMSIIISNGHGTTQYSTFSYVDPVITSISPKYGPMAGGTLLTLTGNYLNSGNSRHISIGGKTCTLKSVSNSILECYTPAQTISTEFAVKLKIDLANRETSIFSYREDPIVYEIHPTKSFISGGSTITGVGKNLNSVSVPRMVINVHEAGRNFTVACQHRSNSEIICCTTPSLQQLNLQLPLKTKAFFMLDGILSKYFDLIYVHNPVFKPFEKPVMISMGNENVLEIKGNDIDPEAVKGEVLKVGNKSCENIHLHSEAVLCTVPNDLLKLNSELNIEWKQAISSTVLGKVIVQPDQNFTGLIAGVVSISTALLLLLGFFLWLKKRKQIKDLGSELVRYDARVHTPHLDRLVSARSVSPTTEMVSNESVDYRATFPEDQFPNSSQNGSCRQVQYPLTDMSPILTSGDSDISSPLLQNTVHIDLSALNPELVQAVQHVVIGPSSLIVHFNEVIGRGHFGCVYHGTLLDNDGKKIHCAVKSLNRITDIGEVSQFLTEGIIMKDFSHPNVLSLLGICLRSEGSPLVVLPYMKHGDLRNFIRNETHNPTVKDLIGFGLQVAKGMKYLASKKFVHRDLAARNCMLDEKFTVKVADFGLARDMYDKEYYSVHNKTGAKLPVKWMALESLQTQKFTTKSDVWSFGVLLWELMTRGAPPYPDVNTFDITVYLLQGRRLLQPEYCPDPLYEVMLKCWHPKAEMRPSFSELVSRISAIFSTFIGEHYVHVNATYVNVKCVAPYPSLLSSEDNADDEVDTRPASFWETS
Method: Compound 1 was screened for its ability to inhibit c-Met kinase using a standard radiometric assay. Briefly, in this kinase assay the transfer of the terminal ^33P-phosphate in ^33P-ATP to substrate polyE4Y is interrogated. The assay was carried out in 96-well plates to a final volume of 100 μL per well containing 0.5 nM c-Met, 100 mM HEPES (pH 7.5), 10 mM MgCl2, 25 mM NaCl, 0.01% BSA, 1 mM DTT, 0.5 mg/mL polyE4Y, and 35 μM ATP. Accordingly, Compound 1 was dissolved in DMSO to make a 10 mM initial stock solution. Serial dilutions in DMSO were then made to obtain the final solutions for the assay. A 1.5 μL aliquot of DMSO or inhibitor in DMSO was added to each well, followed by the addition of ^33P-ATP, and finally the addition of c-Met and polyE4Y (obtained from Sigma). After 20 min, the reaction was quenched with 50 μL of 30% trichloroacetic acid (TCA) containing 4 mM ATP. The reaction mixture was transferred to the 0.66 mm GF filter plates (Corning) and washed three times with 5% TCA. Following the addition of 50 μL of Ultimate Gold™ high efficiency scintillant (Packard Bioscience), the samples were counted in a Packard TopCount NXT Microplate Scintillation and Luminescence Counter (Packard BioScience). The Ki values were calculated using Microsoft Excel Solver macros to fit the data to the kinetic model for competitive tight-binding inhibition.

[2] = tested on: SNU-5 gastric cancer cells; assay: Inhibition of tumor growth of subcutaneously implanted SNU-5 cells in SCID mice; format: in vivo; settings: for SNU-5 tumor weight at study termination, Mean: Day 38, group mean; for SNU-5 tumor weight at study termination, Mean / SNU-5 tumor weight at study termination, individual animal: in mg (unit assumed); for SNU-5 tumor weight at study termination, individual animal: Day 38, one value per animal ID, listed as Compound 3; for percent tumor weight reduction vs vehicle control: P<0.002
Method: SNU-5 cells (CRL-5973, American Type Culture Collection, Manassas, Va.) were cultured in ISCOVE's Modified Dulbecco's Medium (IMDM) (Invitrogen, Carlsbad, Calif.) supplemented with 10% fetal bovine serum (FBS) (Hyclone, Logan, Utah), 100 units/mL of penicillin, […] of streptomycin (Invitrogen, Carlsbad, Calif.), and 2 mM L-glutamine. Cells were cultured for fewer than 4 passages prior to implantation. Female SCID mice (Fox Chase SCID, CB-17, mice weighing 17 to 19 g obtained from Charles River Laboratories, Wilmington, Mass.) were injected subcutaneously (s.c.) with 5×10^6 SNU-5 cells into the right dorsal axillary region on Day 0. Treatments were initiated on Day 25 when the average tumor volume reached approximately 358 mm^3.
Compound 1, formulated in a vehicle containing 30% (w/v) Propylene Glycol and 10% Solutol (Sigma-Aldrich, St Louis, Mo.) as a suspended homogenous form, was administered orally (p.o.) once daily (QD) at total daily doses of 3, 10, and 30 mg/kg/day for 14 days. Tumor volumes (calculated using the ellipsoid formula, (length×width^2)/2, where length and width represented the largest and smallest dimensions of the tumor, respectively) were recorded for two weeks after the initiation of treatment. The study was terminated 38 days after tumor implantation.

[3] = tested on: A549 cells (A549HGF-lm1115); assay: Inhibition of tumor metastasis to the lungs, subcutaneous A549HGF tumors in SCID mice; format: in vivo; settings: for Luminescence of homogenized lung tissue, Mean / Luminescence of homogenized lung tissue, individual animal: study termination; for Luminescence of homogenized lung tissue, Mean: group mean; for Luminescence of homogenized lung tissue, individual animal: one value per animal ID
Method: Compound 1 was investigated for its ability to inhibit the metastasis of subcutaneously implanted tumors to the lungs of severe combined immunodeficient (SCID) mice. Accordingly, A549 cells (A549HGF-lm1115, transfected with hepatocyte growth factor, luciferase, and green fluorescent protein) were cultured in RPMI1640 medium (Invitrogen, Carlsbad, Calif.) supplemented with 10% fetal bovine serum (FBS) (Hyclone, Logan, Utah), 100 units/mL of penicillin, […] of streptomycin (Invitrogen, Carlsbad, Calif.), and 2 mM L-glutamine for fewer than 4 passages prior to implantation. 3-(Difluoro(quinolin-6-yl)methyl)-N-(1-methyl-1H-pyrazol-4-yl)-[1,2,4]triazolo[3,4-b][1,3,4]thiadiazol-6-amine (Compound 1) was formulated in a vehicle containing 0.5% (w/v) methylcellulose (Sigma-Aldrich, St Louis, Mo.) and 0.1% (v/v) Tween 80™ as a dissolved homogenous form, which was prepared fresh each day and administered to mice via oral gavage at a dosing volume of 10 mL/kg.
Female SCID mice were injected subcutaneously (s.c.) with 5×10^6 A549HGF cells into the right dorsal axillary region on Day 0. Treatments were initiated on the same day by oral administration (p.o.) of Compound 1 once daily (QD) at total daily doses of 30 and 60 mg/kg/day for 22 days. Ectopic tumor measurements were recorded twice a week for 3 weeks after the initiation of treatment.
In order to evaluate the anti-metastatic potential of Compound 1, at the termination of the study all animal lung tissues were harvested and lysed by homogenization for ex vivo quantification via luciferase luminescence.

c-Met [4] = molecular target: T1, c-Met; assay: Inhibition of c-Met activity in Snu5 gastric carcinoma cells (Snu5-AP1-Luc-Pest luciferase); format: cell-based; parameters: is a human gastric carcinoma known to overexpress c-Met, which is constitutively active; host or cells: Snu5 human gastric carcinoma cells transduced with a 6xAP1-luciferase-PEST reporter (Snu5-AP1-Luc-Pest); settings: 6 hours, luciferase luminescence
From the text: Compound 1 was also screened for its ability to inhibit the Luciferase-induced signal in an engineered Snu5 cell line. Snu5 [obtained from American Type Culture Collection (Catalog number CRL-5973)] is a human gastric carcinoma known to overexpress c-Met, which is constitutively active. The cell line was transduced with the retrovirus, pCLPCX, which contains a genetic construct consisting of 6×AP1 promoter response elements and a luciferase gene having a C-terminal PEST sequence (proteolytic signal from mouse ornithine decarboxylase, which reduces the half-life of the luciferase). The constitutively active c-Met activates cellular pathways (principally MAP kinase), resulting in AP-1-induced transcription of luciferase-PEST and translation into the final product, the activity of which is quantifiable as a chemiluminescent readout upon the addition of luciferin (Steady-Glo from Promega.). Residual luminescence is strongly correlated to the inhibition of c-Met. A stable cell line was obtained by selecting the new cell line (Snu5-AP1-Luc-Pest) with puromycin. […] The Snu5-AP1-Luc-Pest cells were counted and diluted to 200,000-cells/mL solution. […] The plate was read on a 1450 Microbeta Liquid Scintillation and Luminescence Counter (Perkin-Elmer).

Question: How did the Ki (c-Met [1]) turn out when `Cn1cc(Nc2nn3c(C(F)(F)c4ccc5ncccc5c4)nnc3s2)cn1` [Compound 1, 3-(difluoro(quinolin-6-yl)methyl)-N-(1-methyl-1H-pyrazol-4-yl)-[1,2,4]triazolo[3,4-b][1,3,4]thiadiazol-6-amine] was run?
Answer: The Ki was under 20 nM.

Question: And the SNU-5 tumor volume ([2]; 3 mg/kg/day p.o. QD, Day 25 (treatment start), mean ± standard error)?
Answer: The SNU-5 tumor volume was 356.1 ± 24.5 mm^3.

Question: What about the SNU-5 tumor volume ([2]; 3 mg/kg/day p.o. QD, Day 28, mean ± standard error) of the same compound?
Answer: Its SNU-5 tumor volume is 432.6 ± 31.2 mm^3.

Question: What about the SNU-5 tumor volume ([2]; 3 mg/kg/day p.o. QD, Day 31, mean ± standard error) of the same compound?
Answer: The SNU-5 tumor volume was 511.9 ± 36.3 mm^3.

Question: And the SNU-5 tumor volume ([2]; 3 mg/kg/day p.o. QD, Day 35, mean ± standard error)?
Answer: Its SNU-5 tumor volume is 587.8 ± 39.5 mm^3.

Question: And the SNU-5 tumor volume ([2]; 3 mg/kg/day p.o. QD, Day 38, mean ± standard error)?
Answer: The SNU-5 tumor volume was 670.4 ± 46.2 mm^3.

Question: And the “SNU-5 tumor weight at study termination, Mean” value (“SNU-5 tumor weight … Mean” for short) ([2]; 3 mg/kg/day)?
Answer: The value was 619.9.

Question: What about the “SNU-5 tumor weight at study termination, individual animal” value (from here on “SNU-5 tumor weight … individual animal”) ([2]; 3 mg/kg/day) of the same compound?
Answer: The value was 619 and 505 and 525 and 485 and 605 and 655 and 851 and 770 and 405 and 790 and 938 and 508 and 368 and 679 and 596.

Question: What about the “percent tumor weight reduction vs vehicle control” value (shortened to “percent tumor weight reduction”) ([2]; 3 mg/kg/day) of the same compound?
Answer: Its value is 34.5%.

Question: What about the SNU-5 tumor volume ([2]; 10 mg/kg/day p.o. QD, Day 25 (treatment start), mean ± standard error) of the same compound?
Answer: The SNU-5 tumor volume was 358.0 ± 17.1 mm^3.

Question: What about the SNU-5 tumor volume ([2]; 10 mg/kg/day p.o. QD, Day 28, mean ± standard error) of the same compound?
Answer: Its SNU-5 tumor volume is 354.2 ± 21.7 mm^3.

Question: And the SNU-5 tumor volume ([2]; 10 mg/kg/day p.o. QD, Day 31, mean ± standard error)?
Answer: The SNU-5 tumor volume was 381.8 ± 25.6 mm^3.

Question: What about the SNU-5 tumor volume ([2]; 10 mg/kg/day p.o. QD, Day 35, mean ± standard error) of the same compound?
Answer: Its SNU-5 tumor volume is 406.6 ± 23.4 mm^3.

Question: What about the SNU-5 tumor volume ([2]; 10 mg/kg/day p.o. QD, Day 38, mean ± standard error) of the same compound?
Answer: The SNU-5 tumor volume was 453.9 ± 27.3 mm^3.

Question: What about the “SNU-5 tumor weight … Mean” value ([2]; 10 mg/kg/day) of the same compound?
Answer: Its value is 385.7.

Question: What about the “SNU-5 tumor weight … individual animal” value ([2]; 10 mg/kg/day) of the same compound?
Answer: Its value is 319 and 476 and 358 and 469 and 279 and 660 and 418 and 400 and 387 and 410 and 349 and 275 and 305 and 371 and 309.

Question: What about the “percent tumor weight reduction” value ([2]; 10 mg/kg/day) of the same compound?
Answer: Its value is 59.3%.

Question: What about the SNU-5 tumor volume ([2]; 30 mg/kg/day p.o. QD, Day 25 (treatment start), mean ± standard error) of the same compound?
Answer: Its SNU-5 tumor volume is 359.5 ± 35.1 mm^3.

Question: What about the SNU-5 tumor volume ([2]; 30 mg/kg/day p.o. QD, Day 28, mean ± standard error) of the same compound?
Answer: Its SNU-5 tumor volume is 281.3 ± 28.7 mm^3.

Question: And the SNU-5 tumor volume ([2]; 30 mg/kg/day p.o. QD, Day 31, mean ± standard error)?
Answer: Its SNU-5 tumor volume is 256.5 ± 23.6 mm^3.

Question: What about the SNU-5 tumor volume ([2]; 30 mg/kg/day p.o. QD, Day 35, mean ± standard error) of the same compound?
Answer: Its SNU-5 tumor volume is 255.7 ± 21.1 mm^3.

Question: And the SNU-5 tumor volume ([2]; 30 mg/kg/day p.o. QD, Day 38, mean ± standard error)?
Answer: The SNU-5 tumor volume was 273.4 ± 24.2 mm^3.

Question: What about the “SNU-5 tumor weight … Mean” value ([2]; 30 mg/kg/day) of the same compound?
Answer: The value was 251.2.

Question: And the “SNU-5 tumor weight … individual animal” value ([2]; 30 mg/kg/day)?
Answer: Its value is 180 and 173 and 260 and 420 and 250 and 156 and 350 and 327 and 150 and 246.

Question: And the “tumor regression by tumor volume analysis” value ([2]; 30 mg/kg/day, P<0.001)?
Answer: Its value is −23.9%.

Question: And the “percent tumor weight reduction” value ([2]; 30 mg/kg/day)?
Answer: Its value is 73.5%.

Question: And the anti-tumor activity ([2]; all three dose levels tested (3, 10, 30 mg/kg/day))?
Answer: Its anti-tumor activity is “significant and dose-dependent anti-tumor activity”.

Question: And the “Luminescence of homogenized lung tissue, Mean” value ([3]; 30 mg/kg/day)?
Answer: The value was 12740.8 counts.

Question: And the “Luminescence of homogenized lung tissue, individual animal” value ([3]; 30 mg/kg/day)?
Answer: The value was 3890 counts and 5270 counts and 2270 counts and 2620 counts and 17200 counts and 21300 counts and 6430 counts and 4340 counts and 65400 counts and 2230 counts and 16300 counts and 5640 counts.

Question: What about the “formation of lung metastases” value ([3]; 60 mg/kg/day compared to vehicle controls, p<0.02) of the same compound?
Answer: The value was “significantly inhibits”.

Question: And the “Luminescence of homogenized lung tissue, Mean” value ([3]; 60 mg/kg/day, p<0.02 vs vehicle)?
Answer: The value was 6672.3±1986.1 counts and 6672.3 counts.

Question: What about the “Luminescence of homogenized lung tissue, individual animal” value ([3]; 60 mg/kg/day) of the same compound?
Answer: Its value is 2170 counts and 1480 counts and 2540 counts and 19300 counts and 21100 counts and 3800 counts and 16500 counts and 1440 counts and 2620 counts and 2920 counts and 5540 counts and 4860 counts and 2470 counts.

Question: And the “change in primary A549 tumor cell growth at the site of implantation vs vehicle” value ([3]; 30 or 60 mg/kg/day p.o. QD, 22 days)?
Answer: Its value is “no significant change”.

Question: And the IC50 (c-Met [4])?
Answer: The IC50 was under 20 nM.
